# Assay results published in publication PMC9821961, “Ring-Modified Histidine-Containing Cationic Short Peptides Exhibit Anticryptococcal Activity by Cellular Disruption” (Molecules, 2022).
# Several values for one entry are separate records, joined by “and”; a condition that tells them apart may be missing. Equal values may be shown once. Read-outs that look alike come from different tables or passages of the source.
# Tests used:
# [1] = test system: S. aureus; experiment: microbe, parasite or virus in culture; format: cell-based, Staphylococcus aureus; conditions: 48 h
# Text: (§1) Microbial strains: Microbial strains were procured from National Culture Collection of Pathogenic Fungi (NCCPF) at the Postgraduate Institute of Medical Education & Research (PGIMER), Chandigarh and Microbial Type Culture Collection and Gene bank (MTCC) at the Institute of Microbial Technology (IMTECH), Chandigarh, India. Peptides were screened against five different strains of fungi: viz. Candida albicans (NCCPF400034), Candida glabrata (MTCC 3019), Candida parapsilosis (NCCPF 440002), Candida krusei (NCCPF 440002) and Cryptococcus neoformans (NCCPF250316), and five strains of bacteria: viz. Escherichia coli (MTCC 2961), Staphylococcus aureus (MTCC 3160), Enterococcus faecalis (MTCC 439), Streptococcus pyogenes (MTCC 442) and Pseudomonas aeruginosa (MTCC 3542).
# (§2) Growth media: Antifungal susceptibility testing was carried out using standard broth microdilution assays as per the Clinical and Laboratory Standards Institute (CLSI) guidelines for fungi. RPMI 1640 (Sigma), yeast extract, peptone and dextrose (YPED, Himedia) were used as the incubation broths. The cells were diluted to a cell density of 10^3 colony forming unit (CFU/mL) and incubated at 30 °C for 48 h. Furthermore, Muller Hinton (Himedia) media was utilized for bacterial strains and antibacterial activity was evaluated per CLSI guidelines for bacteria. […] Amphotericin B (Himedia, India) and rifampicin (Himedia, India) were used as standard drugs for the evaluation of activity against all the fungal and bacterial strains, respectively.
# (§3) The stock solutions of peptides (2 mg/mL) were prepared in DMSO. Specific amounts of peptide from stock solution were added to a 96-well microtiter plate containing 100 μL of growth media and then serially diluted two-fold. A further 100 μL of growth media containing microbial cells were added to each well and incubated at 30–37 °C for 24–48 h. The optical density (OD) was measured at 600 nm using a BioStack Ready (BioTek Instruments, Winooski, VT, USA) microplate reader to analyze microbial growth inhibition, and IC50 and MIC values were calculated. To visualize the growth and inhibition pattern, a solution of 3-(4,5-dimethylthiazol-2-yl)-2,5-diphenyltetrazolium bromide (MTT) in water was added to the plate and incubated for 2–3 h. MTT reacts with the mitochondrial dehydrogenases, which are present only in a viable cell, to give blue colored formazan crystals. Therefore, a darker color indicates a high number of viable cells; however, non-viable cells appear pale or colorless.
# [2] = test system: S. pyogens; experiment: microbe, parasite or virus in culture; format: cell-based, Streptococcus pyogenes; conditions: 48 h
# [3] = test system: E. coli; experiment: microbe, parasite or virus in culture; format: cell-based, Escherichia coli; conditions: 48 h
# Text: as §1, §2, §3
# [4] = test system: C. neoformans cells; experiment: Internal cell morphology analysis by TEM (HRTEM, STEM); format: cell-based, Cryptococcus neoformans; conditions: at MIC, 12 h
# Protocol: The samples were prepared in a similar manner to as mentioned in the procedure for SEM sample preparation, up until the dehydration of cells with increasing gradients of ethanol. The dehydrated samples were then embedded in resin which was prepared from an epoxy embedding medium kit (Sigma, 45359-1EA-F). Increasing gradients (10%, 20%, 30%, 50%, 70% and 90%) of resin were added to the samples followed by incubation for 1–2 h at room temperature after addition of each gradient. Undiluted resin (100%) was added to the sample and incubated for 24 h at 70 °C. Semi-thin and ultrathin sections were cut with an ultramicrotome (Ultramicotome Lecia EM UC6). The sections of samples were placed on a 3.05 mm diameter and 200 mesh copper grid and stained with uranyl acetate or lead acetate, before observation under the HRTEM (FEI Technai G2 F20, Eindhoven, The Netherlands) and analysis at 120 KV.
# [5] = test system: C. neoformans cells; experiment: CLSM FITC-labeled peptide uptake assay; format: cell-based, Cryptococcus neoformans; conditions: FITC-tagged peptide, 12 h
# Protocol: After incubation, cells were harvested by centrifugation at 2000× g for 10 min at 4 °C and suspended in PBS and mounted on a slide for visualization under a confocal microscope with excitation and emission wavelengths of 488 nm and 515 nm, respectively.
# [6] = test system: C. neoformans (ATCC350) cells; experiment: CLSM DAPI uptake assay; format: cell-based, Cryptococcus neoformans; conditions: at MIC, 12 h, then DAPI
# Protocol: After incubation, treated and untreated cells were centrifuged at 2000× g for 10 min at 4 °C and suspended in cold PBS and followed by 2–3 washings with PBS. The cells were then incubated with DAPI (3.01 μM) for 10 min at room temperature with constant shaking, harvested by centrifugation and suspended in PBS. Then, the fungal cells were examined using confocal microscopy (Olympus Fluoview™ FV1000 SPD; Olympus, Tokyo, Japan) with excitation at 350 nm and emission at 470 nm.
# [7] = test system: HeLa
# Protocol: (§4) The cells (50,000 cells/well) were seeded to the wells of the plate in Dulbecco’s Modified Eagle Medium (DMEM) supplemented with 10% fetal bovine serum at 37 °C overnight and incubated for 24 h to achieve confluency. Peptides at different concentrations of 50, 25, 12.5, 6.25, 3.12, 1.56 and 0.78 μg/mL were added to the cells in separate wells and incubated at 37 °C for 18 h. A further 20 µL MTT solution (5 mg/mL stock conc. in PBS) was added and the plate was incubated for another 3–4 h. To detect the viable cells that react with MTT to make formazan crystals, 120 μL of supernatant was removed and 100 μL DMSO was added to dissolve the crystals. Untreated cells and DMSO (10%) were used as negative and positive controls, respectively [37]. The percent viability of cells was calculated using equation:(2) % Cell viability=Av. Absorbance of treated cells/Av. Absorbance of control cells×100
# [8] = test system: Red blood cells (RBCs); conditions: for % Hemolysis HC10 / % Hemolysis HC50: red cells of human
# Protocol: Human blood in 10% citrate phosphate dextrose was obtained from Government Hospital, Chandigarh, India. Red blood cells (RBCs) were harvested by spinning at 1000× g for 5 min followed by washing with PBS 3–5 times. The packed cell volume was obtained and utilized to make a 0.8% (v/v) suspension of RBCs in PBS. […] The plate was incubated at 37 °C for 60 min followed by centrifugation at 1000× g for 5 min at 25 °C. The supernatant (100 μL) was transferred to a fresh microtiter plate and absorbance was recorded at 414 nm (Varioskan LUX multimode microplate reader, Thermo Scientific, Waltham, MS, USA) to analyze RBC lysis. Untreated RBCs in PBS and lysed RBCs in 0.1% Triton X-100 were used as negative and positive controls, respectively [29]. Percent hemolysis was calculated using following equation [38]. (3) % Hemolysis=Absorbance of treated sample−Absorbance of negative control/Absorbance of positive control−Absorbance of negative control×100
# [9] = test system: Cryptococcal cells; conditions: for MIC Alone: cryptococcal cells, agent alone
# [10] = in vitro; conditions: human, HEK-293 cells
# Protocol: as §4
# [11] = in vitro; conditions: human, HeLa cells
# Protocol: as §4
# [12] = test system: C. neoformans cells; experiment: Time kill assay; conditions: time-kill profile over 24 h
Compound,IC50 [1] [µg/mL],MIC [1] [µg/mL],IC50 [2] [µg/mL],MIC [2] [µg/mL],IC50 [3] [µg/mL],MIC [3] [µg/mL],Internal morphology of treated cells (HRTEM) [4],Morphology of treated cells (STEM) [4],Fluorescence of cells incubated with FITC-labeled peptide (CLSM) [5],DAPI fluorescence of treated cells (CLSM) [6],Cytotoxic nature [7],Hemolytic behavior [8],% Hemolysis HC10 [8] [µg/mL],% Hemolysis HC50 [8] [µg/mL],MIC Alone [9] [µg/mL],CC50 at 18 h [10] [µg/mL],CC50 at 18 h [11] [µg/mL],Time after which growth/CFUs of cryptococcal cells dropped or were inhibited [12] [h],further results
"COC(=O)[C@H](Cc1ncn(Cc2cc(C(C)(C)C)cc(C(C)(C)C)c2)c1I)NC(=O)[C@@H](N)Cc1c[nH]c2ccccc12 [10d, Trp-His[1-(3,5-di-tert-butylbenzyl)-5-iodo]-OMe]",17.6,32.0,>35.2,>64.0,17.6,32.0,complete lysis of the cell membrane,highly shrunken cells with irregular cell membranes,prominent green fluorescence,fragmented bright blue fluorescence,non-cytotoxic,non-hemolytic,50.53,>100,4.01,> 100,> 100,12,Fold Decrease in MIC ([9]; combination 10d + Amp B): 16; MIC In Combination ([9]; combination 10d + Amp B): 0.25 µg/mL and 0.250 µg/mL; FICI ([9]; combination 10d + Flu): 0.19; MIC In Combination ([9]; combination 10d + Flu): 0.501 µg/mL
"COC(=O)[C@H](Cc1ncn(Cc2ccccc2I)c1I)NC(=O)[C@@H](N)Cc1c[nH]c2ccccc12 [10o, Trp-His[1-(2-iodobenzyl)-5-iodo]-OMe]",>35.2,>64.0,>35.2,>64.0,>35.2,>64.0,cell membrane was completely damaged,highly deformed and shrunken,prominent green fluorescence,fragmented bright blue fluorescence,non-cytotoxic,non-hemolytic,52.17,>100,4.59,> 100,> 100,12,MIC In Combination ([9]; combination 10o + Amp B): 0.287 µg/mL; Effect ([9]; combination 10o + Flu): Additive; Fold Decrease in MIC ([9]; combination 10o + Flu): 1.5; MIC In Combination ([9]; combination 10o + Flu): 2.999 µg/mL
